Results published in US10183011B2, “Anti-depression compounds” (Board of Regents of the University of Texas System, priority 2009, dated 2019).
“Also recorded” adds a separate entry of the source.

Columns and labels:
[1] = tested on: hippocampal neurogenesis; assay: Neurogenic efficacy of orally administered compound, dose response; type: in vivo, mouse; conditions: for pro-neurogenic or neuroprotective efficacy, oral: daily oral gavage for 7 days
Text: FIG. 7: Neurogenic efficacy of orally administered Example 45 Compound was dose-related. […] Results shown are the average obtained from analysis of 5 adult wild type male mice at each dose.
Pharmacokinetic analysis of Example 45 Compound in plasma and whole brain tissue was undertaken after single IV, IP and oral gavage administrations. […] These favorable pharmacological properties facilitated a dose response experiment wherein daily oral administration of Example 45 Compound to adult mice was monitored for both brain levels of the chemical and pro-neurogenic efficacy (FIG. 7).

[2] = tested on: TH+ dopaminergic neurons in the substantia nigra; assay: MPTP model of Parkinson's disease, treatment before, during and after MPTP; type: in vivo, mouse (C57BL/6); conditions: 10 mg/kg i.p. twice daily; MPTP 30 mg/kg/day for 5 days
Method: FIG. 25A and FIG. 25B. Example 6a Compound (P7C3A20) Provides Therapeutic Benefit in Animal Model of Parkinson's Disease. Mice were treated with MPTP (30 mg/kg i.p.) or Vehicle only for 5 days and then immunohistochemically analyzed for tyrosine hydroxylase staining (TH) 21 days later (FIG. 25A). Treatment with MPTP and Vehicle (n=6) reduced the number of TH+ neurons in the substantia nigra (FIG. 25B) by approximately 50% (*, p=0.0002, Student's t test) relative to mice that received Vehicle only (n=8). […] TH+ neurons in the substantia nigra of every mouse were counted blind to treatment group by two investigators using Image J software, and results were averaged.
MPTP (1-methyl-4-phenyl-1,2,3,6-tetrahydropyridine) is a potent neurotoxin that selectively kills dopaminergic neurons in the substantia nigra of both mice and monkeys, causing a clinical picture resembling PD. The MPTP toxicity model can therefore be used to study the death of dopaminergic neurons with the goal of developing new treatments for PD based on neuroprotective strategies found to be effective in these neurons. […] TH-positive cells were counted in the substantia nigra area.

[3] = tested on: newborn cells in the dentate gyrus; assay: Chronic social defeat stress (CSDS): DG cellular proliferation (BrdU) and apoptosis (AC3); type: in vivo, mouse (Ghsr-null and wild-type)
Text: FIG. 40. Effects of P7C3 on DG cellular proliferation and apoptosis following CSDS. (a) Protocol schematic. (b-e) BrdU-immunoreactive and AC3-immunoreactive cell counts in the dorsal and ventral DG of CSDS-exposed and non-CSDS-exposed mice treated with P7C3 vs. vehicle. Group sizes indicated. (f-k) Representative photomicrograph images of double-immunolabeled (BrdU and AC3) ventral DG sections. (l-q) Magnified images of immunoreactive cells (AC3, leftward-facing arrow; BrdU, rightward-facing arrow). Scale bar in (k; 100 μm) pertains to (f-k), in (q; 25 μm) pertains to (l-q). *P<0.05, **P<0.01, ***P<0.001, as compared to respective non-CSDS-exposed, vehicle-treated control group.
It was next investigated whether protecting neural precursor cells from CSDS-associated apoptosis might help protect against the depressive-like phenotype. To test this idea, P7C3 was utilized, a neuroprotective aminopropyl carbazole that elevates hippocampal neurogenesis by blocking apoptosis without affecting the proliferation rate of hippocampal neural precursor cells in the dentate gyrus. A twice-daily schedule of intraperitoneal P7C3 injections (20 mg/kg/d in divided doses) was initiated two days prior to CSDS and continued throughout the 10 day procedure for both wild-type and Ghsr-null littermates. […]
CSDS was performed similar to methods used previously in the lab (J. C. Chuang et al., Ghrelin mediates stress-induced food-reward behavior in mice. J Clin Invest 121, 2684 (2011)). […] Ethovision 3.0 software (Noldus, Leesburg, Va.) measured the duration spent in the interaction zone or in the corners. […]
Immunohistochemistry and quantification were performed as described previously (J. C. Chuang et al., Ghrelin mediates stress-induced food-reward behavior in mice. J Clin Invest 121, 2684 (2011); J. E. Malberg et al., Chronic antidepressant treatment increases neurogenesis in adult rat hippocampus. J Neurosci 20, 9104 (2000); A. A. Pieper et al., Discovery of a proneurogenic, neuroprotective chemical. Cell 142, 39 (2010)). […]

**Q.** What does the source list for `OC(CNc1ccccc1)Cn1c2ccc(Br)cc2c2cc(Br)ccc21` (stereo not shown) [Example 45 Compound]?
**A.** oral dose giving maximal pro-neurogenic efficacy ([1]; daily oral administration to adult mice): ≥ 5 mg/kg; pro-neurogenic or neuroprotective efficacy, oral ([1]; doses 5 to 40 mg/kg): roughly double that of vehicle control; pro-neurogenic or neuroprotective efficacy, oral ([1]; doses below 1.0 mg/kg): no greater than vehicle control

**Q.** Which “MPTP-mediated death of TH+ neurons in the substantia nigra” value [2] does the source give for `COc1cccc(NCC(F)Cn2c3ccc(Br)cc3c3cc(Br)ccc32)c1` (stereo not shown) [Example P7C3A20, N-(3-(3,6-dibromo-9H-carbazol-9-yl)-2-fluoropropyl)-3-methoxyaniline] here?
**A.** significantly attenuates MPTP-mediated killing of substantia nigra dopaminergic neurons; also recorded: significantly attenuated

**Q.** What does the source list for `OC(CNc1ccccc1)Cn1c2ccc(Br)cc2c2cc(Br)ccc21` (stereo not shown) [Example P7C3]?
**A.** AC3+ cells in the ventral DG after CSDS ([3]; 20 mg/kg/d i.p. in divided doses): blocked by P7C3 administration; BrdU+ cells in the DG after CSDS ([3]; 20 mg/kg/d i.p. in divided doses, wild type and Ghsr-null mice): preserved normal levels of neurogenesis throughout both dorsal and ventral regions of the DG; BrdU or AC3 immunoreactivity in the DG ([3]; non-stressed control animals): did not significantly augment BrdU or AC3 immunoreactivity
